From a compilation of properties of binary mixtures (doi:10.1021/je300132e)

Experiment: xn = mol fraction of the nth substance listed
Conditions: 101 kPa

With `CC(=O)[O-].CC[n+]1ccn(C)c1` + O the viscosity (293.1 K, x2 = 0.347) was 93.7 mPa·s, the viscosity (293.1 K, x2 = 0.627) was 42.8 mPa·s and the viscosity (313.1 K, x2 = 0.347) was 35.2 mPa·s. It also gave a viscosity (313.1 K, x2 = 0.517) of 24.4 mPa·s, a viscosity (313.1 K, x2 = 0.578) of 21.4 mPa·s and a viscosity (313.1 K, x2 = 0.627) of 18.2 mPa·s. For the same molecule, the viscosity (313.1 K, x2 = 0.705) was 14 mPa·s, the viscosity (333.1 K, x2 = 0.347) was 16.9 mPa·s and the viscosity (333.1 K, x2 = 0.627) was 9.39 mPa·s. It also gave a viscosity (333.1 K, x2 = 0.705) of 7.36 mPa·s, a viscosity (353.1 K, x2 = 0.347) of 9.51 mPa·s and a viscosity (353.1 K, x2 = 0.517) of 7.19 mPa·s. The viscosity (353.1 K, x2 = 0.578) was 6.46 mPa·s, the viscosity (353.1 K, x2 = 0.627) was 5.63 mPa·s and the viscosity (353.1 K, x2 = 0.705) was 4.38 mPa·s.

`CC[NH+](C)CC.CS(=O)(=O)[O-]` + O gave a viscosity (293.1 K, x2 = 0.372) of 65.26 mPa·s, a viscosity (293.1 K, x2 = 0.449) of 49.94 mPa·s and a viscosity (293.1 K, x2 = 0.507) of 41.92 mPa·s. The viscosity (293.1 K, x2 = 0.624) was 27.93 mPa·s, the viscosity (313.1 K, x2 = 0.449) was 21.55 mPa·s and the viscosity (313.1 K, x2 = 0.507) was 18.69 mPa·s. The viscosity (313.1 K, x2 = 0.624) was 13.36 mPa·s, the viscosity (313.1 K, x2 = 0.707) was 10.09 mPa·s and the viscosity (333.1 K, x2 = 0.449) was 11.37 mPa·s. The viscosity (333.1 K, x2 = 0.624) was 7.34 mPa·s, the viscosity (333.1 K, x2 = 0.707) was 5.72 mPa·s and the viscosity (353.1 K, x2 = 0.372) was 8.2 mPa·s. The viscosity (353.1 K, x2 = 0.507) was 6.08 mPa·s and the viscosity (353.1 K, x2 = 0.707) was 3.6 mPa·s.
